Laboratory results from patent US20110195951A1, “DIAZAINDOLE DERIVATIVES AND THEIR USE IN THE INHIBITION OF C-JUN N-TERMINAL KINASE” (EISAI R&D MANAGEMENT CO., LTD., priority 2008, published 2011).
pIC50: −log10 of the molar value.

What follows are compounds tested against JNK3 (Homo sapiens, UniProt P53779) (assay: JNK3 SPA assay (phosphorylation of GST-c-Jun)). Conditions: 3.33 μM ATP, GST-c-Jun substrate, 30 minutes at room temperature, read-out: IC50 values for compounds (I) against JNK3.
JNK3, sequence (P53779 whole entry, species assumed): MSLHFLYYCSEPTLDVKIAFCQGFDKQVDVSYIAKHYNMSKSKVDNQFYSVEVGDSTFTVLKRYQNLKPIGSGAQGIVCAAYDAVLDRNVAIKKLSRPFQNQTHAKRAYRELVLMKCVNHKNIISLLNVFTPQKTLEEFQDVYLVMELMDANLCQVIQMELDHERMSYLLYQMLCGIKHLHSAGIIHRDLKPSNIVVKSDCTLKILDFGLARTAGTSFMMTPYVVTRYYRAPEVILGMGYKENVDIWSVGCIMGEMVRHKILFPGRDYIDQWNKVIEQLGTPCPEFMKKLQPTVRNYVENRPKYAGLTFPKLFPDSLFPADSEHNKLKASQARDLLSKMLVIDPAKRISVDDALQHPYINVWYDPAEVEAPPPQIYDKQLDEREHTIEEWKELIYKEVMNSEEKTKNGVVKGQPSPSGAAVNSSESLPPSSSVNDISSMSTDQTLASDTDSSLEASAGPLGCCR
Assay type: biochemical
Method: JNK1, JNK2, JNK3—SPA Assay
• 1. The compound was dissolved in DMSO to a convenient concentration and this was diluted in 10% DMSO to a five times concentrate of the desired starting concentration (frequently 1:100). • 2. 10 μl of 500 mM EDTA was added to alternative wells of the Opti-plate row, which would receive kinase reaction plus DMSO. This created the negative control. • 3. For the JNK2 and JNK3 assay, compounds were prepared in six 2-fold dilutions with water and each concentration is tested in duplicate. For the JNK1 assay compounds are prepared in four 5-fold dilutions with water which are tested in triplicate. Controls were treated identically. • 4. […] per well of each compound concentration was transferred to an Opti-plate, in duplicate. • 5. 30 μl (JNK2/3 SPA) or 50 μl (JNK1 SPA) of substrate solution (25 mM HEPES pH 7.5, 10 mM magnesium acetate with 3.33 μM ATP (JNK2/3) or 2 μM ATP (JNK1), approximately 7.5 kBq [γ-^33P] ATP, GST-c-Jun, in water) was added to each well. • 6. 50 μl (JNK2/3 SPA) or 30 μl (JNK1 SPA) of kinase solution (JNK in 25 mM HEPES pH 7.5, 10 mM Mg Acetate) was added to each well.
• 7. The plate was incubated for 30 minutes at room temperature. • 8. 100 μl of bead/stop solution was added to each well (5 mg/ml glutathione-PVT-SPA beads, 40 mM ATP in PBS). • 9. Plates were sealed and incubated for 30 minutes at room temperature, centrifuged for 10 minutes at 2500 g and counted. • 10. The IC50 values were calculated as the concentration of the compound being tested at which the phosphorylation of c-Jun was decreased to 50% of the control value.
Compound `Cn1cc(-c2n[nH]c3ncc(C4CCCCC4)cc23)cn1` [Example 1, 5-cyclohexyl-3-(1-methyl-1H-pyrazol-4-yl)-1H-pyrazolo[3,4-b]pyridine] has a pIC50 of 5.77. In the case of `Cn1cc(-c2n[nH]c3ncc([C@H]4CC[C@H](N5CCCOCC5)CC4)cc23)cn1` [Example 2, 4-((1r,4r)-4-(3-(1-methyl-1H-pyrazol-4-yl)-1H-pyrazolo[3,4-b]pyridin-5-yl)cyclohexyl)-1,4-oxazepane], the pIC50 was less than 5.70. `Cn1cc(-c2n[nH]c3ncc([C@H]4CC[C@@H](N5CCCOCC5)CC4)cc23)cn1` [Example 3, 4-((1s,4s)-4-(3-(1-methyl-1H-pyrazol-4-yl)-1H-pyrazolo[3,4-b]pyridin-5-yl)cyclohexyl)-1,4-oxazepane] gave a pIC50 of less than 5.70. `Cn1cc(-c2c[nH]c3ncc(C4CCCCC4)nc23)cn1` [Example 4, 2-cyclohexyl-7-(1-methyl-1H-pyrazol-4-yl)-5H-pyrrolo[3,2-b]pyrazine] showed a pIC50 of 6.75.
